In patent publication US5714148A, “Chemical compounds” (Zeneca Limited, priority 1992, dated 1998) one finds activity in tests data, which are given here for one compound.

This test in a line: Unspecified tests of activity. The following applies: tests not specified.

As for `O=C(O)CC[C@H](NC(=O)Oc1ccc(N(CCI)CCI)cc1)C(=O)O` [Example 33], the activity in tests result is “good activity”.
